The IC50 is the midpoint of a concentration-inhibition curve. The Ki is a dissociation constant, usually derived from enzyme kinetics or from competition with a known ligand.

Activity calls are given as the source filed them. The calls are words filed in the database; no cut-off is given here. Square brackets hold non-standard residues; d marks the D form. Peptide text beside a SMILES is read from it. * marks the point of attachment. ξ: configuration not given here. ξF = NC(Cc1ccccc1)C(=O)O; Cbz = O=C(OCc1ccccc1)*; CH2F = FC* Where only a bound is given, the exact number is not on record here.

The values that follow come from ChEMBL document CHEMBL4715741, “Neuroprotective effect of synthetic chalcone derivatives as competitive dual inhibitors against μ-calpain and cathepsin B through the downregulation of tau phosphorylation and insoluble Aβ peptide formation” (Eur J Med Chem, 2016).

Assay [1] addresses T1, Calpain-1 catalytic subunit (Homo sapiens, UniProt P07384).
T1 sequence (P07384 whole entry): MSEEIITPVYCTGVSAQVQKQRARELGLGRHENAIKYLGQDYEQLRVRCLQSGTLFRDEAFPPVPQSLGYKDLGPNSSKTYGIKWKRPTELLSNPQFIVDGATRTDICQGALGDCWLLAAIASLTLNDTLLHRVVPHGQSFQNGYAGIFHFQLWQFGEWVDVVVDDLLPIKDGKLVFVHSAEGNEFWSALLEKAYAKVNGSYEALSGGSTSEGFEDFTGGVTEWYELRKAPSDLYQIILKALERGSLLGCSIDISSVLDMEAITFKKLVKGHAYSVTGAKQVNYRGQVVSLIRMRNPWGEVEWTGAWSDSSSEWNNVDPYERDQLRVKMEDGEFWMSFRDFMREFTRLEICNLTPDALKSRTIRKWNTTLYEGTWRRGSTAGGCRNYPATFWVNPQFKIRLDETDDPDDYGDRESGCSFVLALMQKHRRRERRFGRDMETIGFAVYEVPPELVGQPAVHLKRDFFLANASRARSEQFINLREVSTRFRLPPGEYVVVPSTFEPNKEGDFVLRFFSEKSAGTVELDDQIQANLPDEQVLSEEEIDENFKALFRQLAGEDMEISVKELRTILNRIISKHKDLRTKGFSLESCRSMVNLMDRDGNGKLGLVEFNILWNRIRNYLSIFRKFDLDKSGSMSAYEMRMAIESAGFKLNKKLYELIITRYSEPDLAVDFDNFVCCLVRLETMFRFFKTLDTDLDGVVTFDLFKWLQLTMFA
As to the kind of experiment: Inhibition of human erythrocytes mu-calpain using Pep1 as substrate incubated for 30 mins under shaking condition in presence of CaCl2 by fluorescence assay. Set-up: species or system Erythrocyte.

Assay [2] has as its system SH-SY5Y. Put plainly: Neuroprotective activity in human SH-SY5Y cells assessed as reduction in GOx-induced PARP cleavage at 20 uM pretreated with GOx for 4 hrs followed by compound treatment by Western blot analysis. Type of assay: functional, cell-based. For orientation: Immunoblotting shows a protein as a band on a membrane.
The next assay deals with Procathepsin L (Homo sapiens, UniProt P07711). Put plainly: Inhibition of cathepsin L (unknown origin) using Z-FR-AMC as substrate preincubated for 30 mins followed by substrate addition and further incubated for 30 mins under shaking condition by fluorescence assay.
Assay [3] addresses T2, Cathepsin B (Homo sapiens, UniProt P07858). Put plainly: Inhibition of cathepsin B (unknown origin) using RR-AMC as substrate preincubated for 30 mins followed by substrate addition and further incubated for 30 mins under shaking condition by fluorescence assay.
Assay [4] concerns the target T1, Calpain-1 catalytic subunit. Put plainly: Inhibition of human erythrocytes mu-calpain using Pep2 as substrate incubated for 30 mins under shaking condition in presence of CaCl2 by fluorescence assay. The arrangement: species or system Erythrocyte.
The target of assay [5] is T3, Calpain-1 catalytic subunit (Homo sapiens) (UniProt P07384).
T3 sequence (whole entry): T1 sequence (P07384 whole entry)
As to the kind of experiment: (§1) Competitive inhibition of human erythrocytes mu-calpain using varying level of Pep2 as substrate by Lineweaver-Burk plot analysis. Particulars: Erythrocyte.

Assay [6] addresses T1, Calpain-1 catalytic subunit. The description is as §1. The arrangement: species or system Erythrocyte.
Assay [7] deals with T3, Calpain-1 catalytic subunit (Homo sapiens). As to the kind of experiment: Inhibition of mu-calpain (unknown origin) expressed in SH-SY5Y cells assessed as reduction in p35 cleavage at 20 uM using p35 as substrate measured after 210 mins by fluorescence microplate reader assay. Type of assay: cell-based.
In assay [8] the target is T2, Cathepsin B. As to the kind of experiment: Inhibition of cathepsin B in human SH-SY5Y cells using RR-AMC as substrate by fluorescence microplate reader assay. Type of assay: cell-based.
Assay [9] concerns the target T3, Calpain-1 catalytic subunit (Homo sapiens). Put plainly: Inhibition of mu-calpain in human SH-SY5Y cells assessed as reduction in tau phosphorylation by Western blot analysis. Type of assay: cell-based.
Assay [10] deals with SH-SY5Y. As to the kind of experiment: Neuroprotective activity in human SH-SY5Y cells assessed as reduction in GOx-induced caspase 3 cleavage pretreated with GOx for 4 hrs followed by compound treatment by Western blot analysis. Type of assay: functional, cell-based.
The target in assay [11] is T3, Calpain-1 catalytic subunit (Homo sapiens). Put plainly: Inhibition of mu-calpain (unknown origin) expressed in HEK293T cells assessed as reduction in p35 cleavage at 5 uM using p35 as substrate measured after 210 mins by fluorescence microplate reader assay. Type of assay: cell-based.
For assay [12], the system named is SH-SY5Y. Put plainly: Inhibition of mu-calpain/cathepsin B in human SH-SY5Y cells assessed as reduction in GOx-induced BACE1 upregulation at 20 uM pretreated with GOx for 4 hrs followed by compound treatment by Western blot analysis. Type of assay: cell-based.
Assay [13] deals with T2, Cathepsin B. As to the kind of experiment: Competitive inhibition of cathepsin B (unknown origin) using varying level of RR-AMC as substrate by Lineweaver-Burk plot analysis.
Assay [14] relates to SH-SY5Y. As to the kind of experiment: Neuroprotective activity in human SH-SY5Y cells assessed as reduction in GOx-induced PARP cleavage at 5 uM pretreated with GOx for 4 hrs followed by compound treatment by Western blot analysis. Type of assay: functional, cell-based.
In assay [15] the target is T3, Calpain-1 catalytic subunit (Homo sapiens). Put plainly: Inhibition of mu-calpain in human SH-SY5Y cells assessed as reduction in GOx-induced […] pretreated with GOx for 4 hrs followed by compound treatment by Western blot analysis. Type of assay: cell-based.
Assay [16] shares this target. Put plainly: Inhibition of mu-calpain in human SH-SY5Y cells assessed as reduction in GOx-induced MAPK phosphorylation pretreated with GOx for 4 hrs followed by compound treatment by Western blot analysis. Type of assay: cell-based.
Assay [17] has as its system SH-SY5Y. As to the kind of experiment: Reduction in GOx-induced amyloid beta(1 to 42) level in human SH-SY5Y cells pretreated with GOx for 4 hrs followed by compound treatment by sandwich ELISA. Type of assay: functional, cell-based.
Assay [18] addresses T2, Cathepsin B. Put plainly: Inhibition of human liver cathepsin B using RR-AMC as substrate preincubated for 30 mins followed by substrate addition and further incubated for 30 mins under shaking condition by fluorescence assay. Type of assay: tissue-based.

Chain of Procathepsin L (P07711 whole entry): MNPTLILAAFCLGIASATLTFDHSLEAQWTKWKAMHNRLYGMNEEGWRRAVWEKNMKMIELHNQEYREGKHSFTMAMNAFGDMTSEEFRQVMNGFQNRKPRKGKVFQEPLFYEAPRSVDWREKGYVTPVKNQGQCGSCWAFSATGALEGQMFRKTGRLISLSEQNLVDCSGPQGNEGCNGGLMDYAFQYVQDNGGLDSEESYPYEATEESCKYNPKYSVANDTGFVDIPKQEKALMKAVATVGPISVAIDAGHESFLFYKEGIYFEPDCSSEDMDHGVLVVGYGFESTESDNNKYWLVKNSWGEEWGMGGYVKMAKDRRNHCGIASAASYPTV

For the compound `CCCNC(=O)[C@H]1O[C@@H]1C(=O)N[C@H](C(=O)N1CCC[C@H]1C(=O)O)[C@@H](C)CC`, the IC50 in assay [1] was more than 100 µM. For the same compound, the result in the assay with SH-SY5Y [2] was Active.
As to `O=C(N[C@@H](Cc1ccccc1)C(=O)N[C@@H](Cc1ccccc1)C(=O)CF)OCc1ccccc1` (Cbz-Phe-Phe-CH2F), in [1], the concentration for half-maximal inhibition (IC50) was 0.397 µM.
In the case of `COc1ccccc1/C=C/C=C/C(=O)c1ccc(O)cc1`, the half-inhibitory concentration (IC50) in assay [1] came to 13.7 µM; against Procathepsin L, 26.1 µM; on Cathepsin B [3] it was 33.1 µM.
Taken in the same sequence, the figures for `COc1cc(O)ccc1C(=O)/C=C/c1ccc(O)c2ccccc12` were 23.8 µM, 15.6 µM and 15.6 µM.
On to `CC(C)[C@H](NC(=O)OCc1ccccc1)C(=O)NC(C=O)Cc1ccccc1` (stereo partly drawn) (Cbz-Val-[ξF]-aldehyde), for which the outcome in the assay with SH-SY5Y [2] was Active.
Take `COc1cc(O)ccc1C(=O)/C=C/c1ccc(O)cc1`: the IC50 in [4] amounted to 16.9 µM.
As for `CCCC[C@@H](C=O)NC(=O)[C@H](CC(C)C)NC(=O)OCc1ccccc1` [CALPEPTIN], the IC50 in assay [1] is 0.297 µM; on Procathepsin L it was 0.072 µM; against Cathepsin B [3], more than 100 µM.
As for `COc1cc(/C=C/C=C/C(=O)c2ccc(O)cc2)ccc1O`, the inhibition result (in [5]; on Cathepsin B [13]) was “Dose-dependent effect” in each case. Moreover, the Ki in assay [6] was 5.73 µM; on Cathepsin B [13], 4.74 µM. Besides, the IC50 in [1] worked out at 16.8 µM; on Cathepsin B [8], 3.81 µM; against Procathepsin L, 16 µM; against Cathepsin B [3] it was 11.1 µM. Besides, the inhibition entry (in [7]; in assay [9]; in assay [11]; with SH-SY5Y [12]; in assay [15]; in assay [16]) was “Active” each time. In addition, the result with SH-SY5Y [10], with SH-SY5Y [14] and in the assay with SH-SY5Y [17] was Active.
As for `O=C(/C=C/c1ccc(O)c2ccccc12)c1ccc(O)cc1O`, the inhibition entry (in assay [5]; at Cathepsin B [13]) was “Dose-dependent effect” in each case. In addition, the Ki was determined as 19.3 µM in assay [6] and 10.6 µM on Cathepsin B [13]. The IC50 worked out at 18.8 µM in assay [1], 13 µM on Cathepsin B [8], 14.9 µM at Procathepsin L and 6.34 µM against Cathepsin B [3]. The inhibition result (in [7]; in assay [9]; in [11]; in the assay with SH-SY5Y [12]; in assay [15]; in assay [16]) was “Active” each time. Moreover, the outcome in the assay with SH-SY5Y [10], in the assay on SH-SY5Y [14] and in the assay on SH-SY5Y [17] was Active.
Regarding `CCOc1cc(O)ccc1C(=O)/C=C/C=C/c1ccccc1OC`, the IC50 came out at 13 µM in assay [1], 27 µM against Procathepsin L and 13.9 µM against Cathepsin B [3].
`CCOC(=O)[C@H]1O[C@@H]1C(=O)N[C@@H](CC(C)C)C(=O)NCCC(C)C` [ALOXISTATIN]: the results for the IC50 (in assay [1]; against Procathepsin L; at Cathepsin B [3]) were 62.3 µM, 2.41 µM and 14.4 µM, respectively. The outcome in the assay on SH-SY5Y [2] was Active.
On to `COc1ccc(/C=C/C(=O)/C=C/c2ccc(O)cc2OC)cc1`, for which the half-maximal inhibitory concentration (IC50) in [1] is 46.6 µM; against Procathepsin L, more than 50 µM; on Cathepsin B [3] it was 37.8 µM.
Consider `COc1ccc(O)cc1/C=C/C(=O)c1ccc(O)cc1`, for which the half-inhibitory concentration (IC50) in assay [4] stood at 16.7 µM.
As to `O=C(/C=C/c1ccc(O)c2ccccc12)c1ccco1`, the IC50 is 40.9 µM in assay [1], 33 µM on Procathepsin L and more than 50 µM against Cathepsin B [3].
On to `COc1cc(/C=C/C(=O)c2ccco2)ccc1O`, for which the IC50 in assay [4] was 15.4 µM; at Cathepsin B [18], 20.6 µM.
For `COc1ccccc1/C=C/C=C/C(=O)c1cccnc1`, the IC50 in assay [1] was 19.1 µM; against Procathepsin L, 48.4 µM; against Cathepsin B [3], 33.3 µM.
On to `COc1ccc(/C=C/C(=O)c2ccc(O)cc2)c2ccccc12`, for which the values for the IC50 (in [1]; at Procathepsin L; against Cathepsin B [3]) were 10.2 µM, 25.8 µM and 14.5 µM, respectively.
`O=C(/C=C/c1ccc(O)c2ccccc12)c1cccs1`: the values for the IC50 (in assay [1]; against Procathepsin L; on Cathepsin B [3]) were more than 50 µM, 35.4 µM and more than 50 µM, respectively.
Consider `O=C(/C=C/c1ccc(O)c2ccccc12)c1ccc(O)cc1`, for which the IC50 worked out at 69.6 µM in assay [1], 21.6 µM on Procathepsin L and 14.8 µM against Cathepsin B [3].
